Results published in publication PMC10026764, “Overcoming the imatinib-resistant BCR-ABL mutants with new ureidobenzothiazole chemotypes endowed with potent and broad-spectrum anticancer activity” (Journal of Enzyme Inhibition and Medicinal Chemistry, 2023).
Like-named read-outs stand apart in the source and are kept apart here.

Legend:
SR = assay: NCI-60 five-dose SRB assay; format: cell-based, human; conditions: leukaemia
HT29 = assay: NCI-60 five-dose SRB assay; format: cell-based, human; conditions: HT29, colon cancer; for GI50 / CC50: Homo sapiens, HT-29; for CC50: read-out: LC50 (the source's name)
IGROV1 = assay: NCI-60 five-dose SRB assay; format: cell-based; conditions: Homo sapiens, IGROV-1; IGROV1, ovarian cancer
MALME-3M = assay: NCI-60 five-dose SRB assay; format: cell-based; conditions: Homo sapiens, melanoma
KM12 [1] = assay: NCI-60 five-dose SRB assay; format: cell-based; conditions: Homo sapiens; KM12, colon cancer
SF-539 = assay: NCI-60 five-dose SRB assay; format: cell-based; conditions: Homo sapiens; SF-539, CNS cancer
UACC-62 [2] = assay: NCI-60 five-dose SRB assay; format: cell-based; conditions: Homo sapiens; UACC-62, melanoma
NCI-H322M = assay: NCI-60 five-dose SRB assay; format: cell-based, human; conditions: for CC50 / GI50: Homo sapiens; for CC50 / TGI: NSCL cancer; for CC50: read-out: LC50 (the source's name); for GI50: non-small cell lung cancer
A498 = assay: NCI-60 five-dose SRB assay; format: cell-based; conditions: Homo sapiens; A498, renal cancer
MCF7 = assay: NCI-60 five-dose SRB assay; format: cell-based, human; conditions: MCF7, breast cancer; for GI50 / CC50: Homo sapiens; for CC50: read-out: LC50 (the source's name)
SW-620 = assay: NCI-60 five-dose SRB assay; format: cell-based; conditions: Homo sapiens; SW-620, colon cancer
OVCAR-3 = assay: NCI-60 five-dose SRB assay; format: cell-based, human; conditions: OVCAR-3, ovarian cancer; for GI50 / LC50 (concentration killing 50% of cells): Homo sapiens
HCT-116 = assay: NCI-60 five-dose SRB assay; format: cell-based; conditions: Homo sapiens; HCT-116, colon cancer
HCT-15 = assay: NCI-60 five-dose SRB assay; format: cell-based, human; conditions: HCT-15, colon cancer; for GI50 / CC50: Homo sapiens; for CC50: read-out: LC50 (the source's name)
OVCAR-5 = assay: NCI-60 five-dose SRB assay; format: cell-based, human; conditions: OVCAR-5, ovarian cancer; for GI50 / LC50 (50% net cell kill): Homo sapiens
SK-MEL-5 = assay: cells; format: cell-based; conditions: SK-MEL-5, melanoma; for GI50 / LC50 (50% lethal concentration): Homo sapiens
HOP-92 = assay: NCI-60 five-dose SRB assay; format: cell-based; conditions: Homo sapiens; HOP-92, non-small cell lung cancer
M14 [3] = assay: NCI-60 five-dose SRB assay; format: cell-based, human; conditions: M14, melanoma; for GI50 / LC50 (concentration killing 50% of cells): Homo sapiens
LOX IMVI = assay: NCI-60 five-dose SRB assay; format: cell-based; conditions: Homo sapiens, melanoma
HCC-2998 = assay: NCI-60 five-dose SRB assay; format: cell-based; conditions: Homo sapiens; HCC-2998, colon cancer
NCI-H23 = assay: NCI-60 five-dose SRB assay; format: cell-based; conditions: Homo sapiens; NCI-H23, non-small cell lung cancer
HS 578T = assay: NCI-60 five-dose SRB assay; format: cell-based; conditions: Homo sapiens, breast cancer
MDA-MB-435 = assay: NCI-60 five-dose SRB assay; format: cell-based; conditions: Homo sapiens; MDA-MB-435, melanoma
NCI-H522 = assay: NCI-60 five-dose SRB assay; format: cell-based, human
T-47D = assay: NCI-60 five-dose SRB assay; format: cell-based; conditions: Homo sapiens, T47D, breast cancer
K-562 [4] = assay: NCI-60 five-dose SRB assay; format: cell-based, human; conditions: K-562, leukaemia
ABL^M351T = ABL^M351T (Homo sapiens, UniProt P00519, M351T); assay: In vitro enzymatic activity, imatinib-resistant mutant panel; format: biochemical
ACHN [5] = assay: NCI-60 five-dose SRB assay; format: cell-based, human; conditions: renal cancer; for GI50 / CC50: Homo sapiens; for CC50: read-out: LC50 (the source's name)
PC-3 = assay: NCI-60 five-dose SRB assay; format: cell-based; conditions: Homo sapiens; PC-3, prostate cancer
UACC-62 [6] = test system: UACC-62; design: method as in earlier work; conditions: imatinib mesylate NSC 743414, NCI data; cited from earlier work
ACHN [7] = test system: ACHN; design: method as in earlier work; conditions: imatinib mesylate NSC 743414, NCI data; cited from earlier work
EKVX = test system: EKVX; design: method as in earlier work; conditions: imatinib mesylate NSC 743414, NCI data; cited from earlier work
K-562 [8] = test system: K-562; design: method as in earlier work; conditions: imatinib mesylate NSC 743414, NCI data; cited from earlier work
M14 [9] = test system: M14; design: method as in earlier work; conditions: imatinib mesylate NSC 743414, NCI data; cited from earlier work
TK-10 = test system: TK-10; design: method as in earlier work; conditions: imatinib mesylate NSC 743414, NCI data; cited from earlier work
KM12 [10] = test system: KM12; design: method as in earlier work; conditions: imatinib mesylate NSC 743414, NCI data; cited from earlier work
UO-31 = test system: UO-31; design: method as in earlier work; conditions: imatinib mesylate NSC 743414, NCI data; cited from earlier work
MDA-MB-231 = test system: MDA-MB-231; design: method as in earlier work; conditions: imatinib mesylate NSC 743414, NCI data; cited from earlier work
OVCAR-8 = test system: OVCAR-8; design: method as in earlier work; conditions: imatinib mesylate NSC 743414, NCI data; cited from earlier work
COLO 205 = test system: COLO 205; design: method as in earlier work; conditions: imatinib mesylate NSC 743414, NCI data; cited from earlier work
CAKI-1 = assay: NCI-60 five-dose SRB assay; format: cell-based; conditions: Homo sapiens; CAKI-1, renal cancer
[11] = Homo sapiens, NCI-H522, NCI-H522, non-small cell lung cancer

CCN1CCN(c2ccc(NC(=O)Nc3nc4ccc(-c5ccccc5OC)cc4s3)cc2)CC1 [Compound 2b]
GI50 (SR; Homo sapiens): ~1.7 µM
GI50 (SR): 1.65 µM
TGI (HT29): 2.70 µM
GI50 (HT29): 1.31 µM
CC50 (HT29): 5.57 µM
GI50 (IGROV1): 1.87 µM
GI50 (MALME-3M): 1.71 µM
GI50 (KM12 [1]): 1.75 µM
GI50 (SF-539): 1.6 µM
GI50 (UACC-62 [2]): 1.87 µM
CC50 (NCI-H322M): 5.99 µM
GI50 (NCI-H322M): 1.53 µM
TGI (NCI-H322M): 3.03 µM
GI50 (A498): 1.8 µM
GI50 (MCF7): 1.31 µM
CC50 (MCF7): 6.25 µM
TGI (MCF7): 2.86 µM
GI50 (SW-620): 1.94 µM
GI50 (OVCAR-3): 1.64 µM
LC50 (concentration killing 50% of cells) (OVCAR-3): 5.9 µM
TGI (OVCAR-3): 3.11 µM
GI50 (HCT-116): 1.58 µM
TGI (HCT-15): 2.47 µM
GI50 (HCT-15): 1.2 µM
CC50 (HCT-15): 5.06 µM
GI50 (OVCAR-5): 1.8 µM
LC50 (50% net cell kill) (OVCAR-5): 6.33 µM
TGI (OVCAR-5): 3.37 µM
GI50 (SK-MEL-5): 1.73 µM
LC50 (50% lethal concentration) (SK-MEL-5): 5.63 µM
TGI (SK-MEL-5): 3.12 µM
GI50 (HOP-92): 1.47 µM
GI50 (M14 [3]): 1.62 µM
LC50 (concentration killing 50% of cells) (M14 [3]): 5.66 µM
TGI (M14 [3]): 3.03 µM
GI50 (LOX IMVI): 1.7 µM
GI50 (HCC-2998): 1.83 µM
GI50 (NCI-H23): 1.67 µM
GI50 (HS 578T): 1.95 µM
GI50 (MDA-MB-435): 1.71 µM
GI50 (NCI-H522; [11]): ~1.76 µM
GI50 (NCI-H522; NCI-H522, non-small cell lung cancer): 1.75 µM
GI50 (T-47D): 1.58 µM
GI50 (K-562 [4]; Homo sapiens, K562): 0.293 µM
TGI (K-562 [4]): 1.34 µM
IC50 (ABL^M351T): 0.00106 µM
GI50 (ACHN [5]): 1.74 µM
CC50 (ACHN [5]): 5.58 µM
TGI (ACHN [5]): 3.11 µM
GI50 (PC-3): 1.79 µM

Cc1ccc(NC(=O)c2ccc(CN3CCN(C)CC3)cc2)cc1Nc1nccc(-c2cccnc2)n1 [Imatinib]
GI50 (UACC-62 [6]): 19 µM
GI50 (ACHN [7]): 25.2 µM
GI50 (EKVX): 26.2 µM
GI50 (K-562 [8]): 0.02 µM
GI50 (M14 [9]): 19.3 µM
GI50 (TK-10): 26.9 µM
GI50 (KM12 [10]): 18.8 µM
GI50 (UO-31): 22.3 µM
GI50 (MDA-MB-231): 18.7 µM
GI50 (OVCAR-8): 27.7 µM
GI50 (COLO 205): 17.6 µM

COc1ccccc1-c1ccc2nc(NC(=O)Nc3cc(C(F)(F)F)cc(C(F)(F)F)c3)sc2c1 [Compound 2e]
GI50 (SR; Homo sapiens): ~1.7 µM
GI50 (SR): 1.76 µM
TGI (HT29): 9.21 µM
GI50 (HT29): 2.15 µM
CC50 (HT29): 33 µM
GI50 (IGROV1): 2.83 µM
GI50 (MALME-3M): 1.81 µM
GI50 (KM12 [1]): 2.07 µM
GI50 (SF-539): 1.99 µM
GI50 (UACC-62 [2]): 1.56 µM
CC50 (NCI-H322M): 37 µM
GI50 (NCI-H322M): 2.78 µM
TGI (NCI-H322M): 9.06 µM
GI50 (A498): 1.64 µM
GI50 (MCF7): 2.28 µM
CC50 (MCF7): 46.2 µM
TGI (MCF7): 10.9 µM
GI50 (SW-620): 3.04 µM
GI50 (OVCAR-3): 1.58 µM
LC50 (concentration killing 50% of cells) (OVCAR-3): 16.7 µM
TGI (OVCAR-3): 4.58 µM
GI50 (HCT-116): 1.07 µM
TGI (HCT-15): 10.6 µM
GI50 (HCT-15): 2.55 µM
CC50 (HCT-15): 34.6 µM
GI50 (OVCAR-5): 2.54 µM
LC50 (50% net cell kill) (OVCAR-5): 32.7 µM
TGI (OVCAR-5): 9.66 µM
GI50 (SK-MEL-5): 1.57 µM
LC50 (50% lethal concentration) (SK-MEL-5): 5.64 µM
TGI (SK-MEL-5): 2.98 µM
GI50 (HOP-92): 1.19 µM
GI50 (M14 [3]): 1.54 µM
LC50 (concentration killing 50% of cells) (M14 [3]): 6.73 µM
TGI (M14 [3]): 3.22 µM
GI50 (LOX IMVI): 1.68 µM
GI50 (HCC-2998): 2.65 µM
GI50 (NCI-H23): 2.02 µM
GI50 (HS 578T): 2.35 µM
GI50 (MDA-MB-435): 2.27 µM
GI50 (CAKI-1): 2.33 µM
GI50 (NCI-H522; [11]): 1.76 µM
GI50 (T-47D): 2.16 µM
GI50 (K-562 [4]; Homo sapiens, K562): 1.54 µM
CC50 (K-562 [4]; Homo sapiens, K562, read-out: LC50 (the source's name)): 43.9 µM
TGI (K-562 [4]): 8.95 µM
GI50 (ACHN [5]): 2.14 µM
CC50 (ACHN [5]): 28.2 µM
TGI (ACHN [5]): 7.71 µM
GI50 (PC-3): 1.49 µM
